From patent publication US7541368B2, “Pyrazoles as inhibitors of tumor necrosis factor” (Aventis Pharmaceuticals Inc., priority 2003, dated 2009)

How the values were obtained:
[1] = system: TNF-alpha release in THP-1 cells; experiment: LPS-induced TNF-alpha release in THP-1 cells; format: cell-based; details: Homo sapiens, THP-1, LPS-stimulated THP-1 cells; read-out: 50% inhibition in the LPS-induced TNF-alpha release in THP-1 cells assay at concentrations within the range
In short: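 Undifferentiated THP-1 monocytes (1×10^6 cells/ml, 1% FCS) preincubated 1 h at 37° C with compound (1×10^−9 to 1×10^−6 M, 0.3% DMSO), then stimulated with LPS (20 μg/ml) for 18 h. Supernatant TNF-alpha measured by sandwich ELISA (TMB read-out), interpolated from a log/log standard curve (0.125-16 ng/ml).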

[2] = molecular target: T1, Inactive N-terminal His6 tagged murine P38 (Mus musculus, UniProt P47811); experiment: p38 cascade assay (HTRF; inactive p38 activated by MKK-6, ATF-2 phosphorylation); format: biochemical; details: inactive p38 preincubated with compound, then MKK-6, ATF-2, ATP; read-out: 50% inhibition in the p38 cascade assay at concentrations within the range
T1 construct: His6 (N); made in house
T1 sequence (P47811 whole entry): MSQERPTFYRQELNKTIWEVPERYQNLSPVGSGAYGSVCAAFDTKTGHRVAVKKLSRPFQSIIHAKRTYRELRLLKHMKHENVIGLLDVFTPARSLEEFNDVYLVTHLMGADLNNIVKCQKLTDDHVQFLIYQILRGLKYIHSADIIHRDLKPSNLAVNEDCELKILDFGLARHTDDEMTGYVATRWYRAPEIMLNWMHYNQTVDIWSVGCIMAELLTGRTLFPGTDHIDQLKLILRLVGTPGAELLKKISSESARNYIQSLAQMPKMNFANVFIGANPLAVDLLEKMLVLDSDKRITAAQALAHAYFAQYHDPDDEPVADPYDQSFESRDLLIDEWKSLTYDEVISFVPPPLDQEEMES
Method: The homogeneous time resolved fluorescence method (HTRF) assay measured the phosphorylation of human activating transcription factor (ATF)-2 protein by P38 following activation by MKK-6 and was run in A384 well plate format. […] MBP-tagged mouse MKK-6 (final concentration 50 nM), GST-tagged ATF-2 (fmal concentration 200 nM) and ATP (final concentration 50 μM) were then added and the incubation continued for 90 min. p38, MKK-6 and ATF-2 were prepared in the Protein Production Group, Aventis Pharmaceuticals. XL665 labeled anti-GST antibody (Cis Bio International) and cryptate labeled anti-pbospho-ATF2 antibody (Cis Bio International) were then added to generate the specific signal proportional to the phosphorylation of the substrate. The close proximity of XL665 labeled anti-GST antibody/phosphorylated GST-ATF2 complex and the cryptate labeled anti-phospho-ATF2 antibody results in a fluorescence transfer from cryptate to XL665. The resulting fluorescence signal was than read on a LJL Acquest set at multi-method mode using a fluorescence filter set (E=360 nm, Em=615/665 nm) with UV dichroic mirror (Integration time: 300000 μs). The results are reported as IC50 values. Compounds were tested over the concentration range of 3×10^−10M to 3×10^−5M.

Structure (SMILES)	IC50 [1] [nM]	IC50 [2] [nM]
CC(=O)NCC(=O)N1CCC(Cc2cccc(NC(=O)Nc3cc(C(C)(C)C)nn3-c3ccc(C)cc3)c2)CC1 [Compound A179, N-[2-(4-{3-[3-(5-tert-Butyl-2-p-tolyl-2H-pyrazol-3-yl)-ureido]-benzyl}-piperidin-1-yl)-2-oxo-ethyl]-acetamide]	10 to 500	10 to 100
Cc1ccc(-n2nc(C(C)(C)C)cc2NC(=O)Nc2cccc(CC3CCN(C(=O)c4cccnc4)CC3)c2)cc1 [Compound A181, 1-(5-tert-Butyl-2-p-tolyl-2H-pyrazol-3-yl)-3-{3-[1-(pyridine-3-carbonyl)-piperidin-4-ylmethyl]-phenyl}-urea]	10 to 500	10 to 100
Cc1ccc(-n2nc(C(C)(C)C)cc2NC(=O)Nc2ccc(CC3CCN(C(=O)Cc4ccc(F)cc4F)CC3)cc2)cc1 [Compound A217, 1-(5-tert-Butyl-2-p-tolyl-2H-pyrazol-3-yl)-3-(4-{1-[2-(2,4-difluoro-phenyl)-acetyl]-piperidin-4-ylmethyl}-phenyl)-urea]	10 to 500	10 to 100
Cc1ccc(-n2nc(C(C)(C)C)cc2NC(=O)Nc2ccc(CC3CCN(C(=O)c4sc(C)nc4C)CC3)cc2)cc1 [Compound A219, 1-(5-tert-Butyl-2-p-tolyl-2H-pyrazol-3-yl)-3-{4-[1-(2,4-dimethyl-thiazole-5-carbonyl)-piperidin-4-ylmethyl]-phenyl}-urea]	10 to 500	10 to 100
COc1ccc(OC)c(C(=O)N2CCC(Cc3ccc(NC(=O)Nc4cc(C(C)(C)C)nn4-c4ccc(C)cc4)cc3)CC2)c1 [Compound A220, 1-(5-tert-Butyl-2-p-tolyl-2H-pyrazol-3-yl)-3-{4-[1-(2,5-dimethoxy-benzoyl)-piperidin-4-ylmethyl]-phenyl}-urea]	10 to 500	10 to 100
Cc1ccc(-n2nc(C(C)(C)C)cc2NC(=O)Nc2ccc(CC3CCN(C(=O)c4cnccn4)CC3)cc2)cc1 [Compound A256, 1-(5-tert-Butyl-2-p-tolyl-2H-pyrazol-3-yl)-3-{4-[1-(pyrazine-2-carbonyl)-piperidin-4-ylmethyl]-phenyl}-urea]	10 to 500	10 to 100
Cc1ccc(-n2nc(C(C)(C)C)cc2NC(=O)Nc2ccc(CC3CCN(C(=O)c4nccnc4N)CC3)cc2)cc1 [Compound A283, 1-{4-[1-(3-Amino-pyrazine-2-carbonyl)-piperidin-4-ylmethyl]-phenyl}-3-(5-tert-butyl-2-p-tolyl-2H-pyrazol-3-yl)-urea]	10 to 500	10 to 100
Cc1ccc(-n2nc(C(C)(C)C)cc2NC(=O)Nc2ccc(CC3CCN(C(=O)c4occc4C)CC3)cc2)cc1 [Compound A289, 1-(5-tert-Butyl-2-p-tolyl-2H-pyrazol-3-yl)-3-{4-[1-(3-methyl-furan-2-carbonyl)-piperidin-4-ylmethyl]-phenyl}-urea]	10 to 500	10 to 100
Cc1ccc(-n2nc(C(C)(C)C)cc2NC(=O)Nc2ccc(CC3CCN(C(=O)c4oc5ccccc5c4C)CC3)cc2)cc1 [Compound A290, 1-(5-tert-Butyl-2-p-tolyl-2H-pyrazol-3-yl)-3-{4-[1-(3-methyl-benzofuran-2-carbonyl)-piperidin-4-ylmethyl]-phenyl}-urea]	10 to 500	10 to 100
Cc1ccc(-n2nc(C(C)(C)C)cc2NC(=O)Nc2ccc(CC3CCN(C(=O)CCOc4ccccc4)CC3)cc2)cc1 [Compound A292, 1-(5-tert-Butyl-2-p-tolyl-2H-pyrazol-3-yl)-3-{4-[1-(3-phenoxy-propionyl)-piperidin-4-ylmethyl]-phenyl}-urea]	10 to 500	10 to 100
Cc1ccc(-n2nc(C(C)(C)C)cc2NC(=O)Nc2ccc(CC3CCN(C(=O)c4ccsc4)CC3)cc2)cc1 [Compound A294, 1-(5-tert-Butyl-2-p-tolyl-2H-pyrazol-3-yl)-3-{4-[1-(thiophene-3-carbonyl)-piperidin-4-ylmethyl]-phenyl}-urea]	10 to 500	10 to 100
Cc1ccc(-n2nc(C(C)(C)C)cc2NC(=O)Nc2ccc(CC3CCN(C(=O)c4cnc(O)c(Cl)c4)CC3)cc2)cc1 [Compound A326, 1-(5-tert-Butyl-2-p-tolyl-2H-pyrazol-3-yl)-3-{4-[1-(5-chloro-6-hydroxy-pyridine-3-carbonyl)-piperidin-4-ylmethyl]-phenyl}-urea]	10 to 500	10 to 100
Cc1ccc(-n2nc(C(C)(C)C)cc2NC(=O)Nc2ccc(CC3CCN(C(=O)c4cccc(C)n4)CC3)cc2)cc1 [Compound A334, 1-(5-tert-Butyl-2-p-tolyl-2H-pyrazol-3-yl)-3-{4-[1-(6-methyl-pyridine-2-carbonyl)-piperidin-4-ylmethyl]-phenyl}-urea]	10 to 500	10 to 100
CC(=O)OCc1ccc(C(=O)N2CCC(Cc3ccc(NC(=O)Nc4cc(C(C)(C)C)nn4-c4ccc(C)cc4)cc3)CC2)cc1 [Compound A336, Acetic acid 4-(4-{4-[3-(5-tert-butyl-2-p-tolyl-2H-pyrazol-3-yl)-ureido]-benzyl}-piperidin-1-carbonyl)-benzyl ester]	10 to 500	10 to 100
Cc1ccc(-n2nc(C(C)(C)C)cc2NC(=O)Nc2ccc(CC3CCN(C(=O)CNC(=O)c4ccccc4)CC3)cc2)cc1 [Compound A352, N-[2-(4-{4-[3-(5-tert-Butyl-2-p-tolyl-2H-pyrazol-3-yl)-ureido]-benzyl}-piperidin-1-yl)-2-oxo-ethyl]-benzamide]	10 to 500	10 to 100
Cc1ccc(-n2nc(C(C)(C)C)cc2NC(=O)Nc2ccc(CC3CCN(C(=O)c4ccc5[nH]ccc5c4)CC3)cc2)cc1 [Compound A361, 1-(5-tert-Butyl-2-p-tolyl-2H-pyrazol-3-yl)-3-{4-[1-(1H-indole-5-carbonyl)-piperidin-4-ylmethyl]-phenyl}-urea]	10 to 500	10 to 100
Cc1ccc(-n2nc(C(C)(C)C)cc2NC(=O)Nc2ccc(CC3CCN(C(=O)c4ccncc4)CC3)cc2)cc1 [Compound A364, 1-(5-tert-Butyl-2-p-tolyl-2H-pyrazol-3-yl)-3-{4-[1-(pyridine-4-carbonyl)-piperidin-4-ylmethyl]-phenyl}-urea]	10 to 500	10 to 100
COCC(=O)N1CCC(Cc2ccc(NC(=O)Nc3cc(C(C)(C)C)nn3-c3ccc(C)cc3)cc2)CC1 [Compound A367, 1-(5-tert-Butyl-2-p-tolyl-2H-pyrazol-3-yl)-3-{4-[1-(2-methoxy-acetyl)-piperidin-4-ylmethyl]-phenyl}-urea]	10 to 500	10 to 100
CC(=O)NCC(=O)N1CCC(Cc2ccc(NC(=O)Nc3cc(C(C)(C)C)nn3-c3ccc(C)cc3)cc2)CC1 [Compound A375, N-[2-(4-{4-[3-(5-tert-Butyl-2-p-tolyl-2H-pyrazol-3-yl)-ureido]-benzyl}-piperidin-1-yl)-2-oxo-ethyl]-acetamide]	10 to 500	10 to 100
Cc1ccc(-n2nc(C(C)(C)C)cc2NC(=O)Nc2ccc(CC3CCN(C(=O)c4cccnc4)CC3)cc2)cc1 [Compound A377, 1-(5-tert-Butyl-2-p-tolyl-2H-pyrazol-3-yl)-3-{4-[1-(pyridine-3-carbonyl)-piperidin-4-ylmethyl]-phenyl}-urea]	10 to 500	10 to 100
Cc1ccc(-n2nc(C(C)(C)C)cc2NC(=O)Nc2ccc(CC3CCN(C(=O)c4ccc5ncccc5c4)CC3)cc2)cc1 [Compound A386, 1-(5-tert-Butyl-2-p-tolyl-2H-pyrazol-3-yl)-3-{4-[1-(quinoline-6-carbonyl)-piperidin-4-ylmethyl]-phenyl}-urea]	10 to 500	10 to 100
Cc1ccc(-n2nc(C(C)(C)C)cc2NC(=O)Nc2ccc(CC3CCN(S(C)(=O)=O)CC3)cc2)cc1 [Compound A608, 1-(5-tert-Butyl-2-p-tolyl-2H-pyrazol-3-yl)-3-[4-(1-methanesulfonyl-piperidin-4-ylmethyl)-phenyl]-urea]	10 to 500	10 to 100
Cc1ccc(-n2nc(C(C)(C)C)cc2NC(=O)Nc2ccc(CC3CCN(C(=O)OCc4ccccc4)CC3)cc2)cc1 [Compound A1610, 4-{4-[3-(5-tert-Butyl-2-p-tolyl-2H-pyrazol-3-yl)-ureido]-benzyl}-piperidine-1-carboxylic acid benzyl ester]	10 to 500	10 to 100
Cc1ccc(-n2nc(C(C)(C)C)cc2NC(=O)Nc2ccc(CC3CCN(C(=O)OCC(C)C)CC3)cc2)cc1 [Compound A1625, 4-{4-[3-(5-tert-Butyl-2-p-tolyl-2H-pyrazol-3-yl)-ureido]-benzyl}-piperidine-1-carboxylic acid isobutyl ester]	10 to 500	10 to 100
COc1ccc(OC)c(C(=O)N2CCC(Cc3cccc(NC(=O)Nc4cc(C(C)(C)C)nn4-c4ccc(C)cc4)c3)CC2)c1 [Compound A1636, 1-(5-tert-Butyl-2-p-tolyl-2H-pyrazol-3-yl)-3-{3-[1-(2,5-dimethoxy-benzoyl)-piperidin-4-ylmethyl]-phenyl}-urea]	10 to 500	10 to 100
